Measured values taken from patent US20030087844A1, “Ribavirin syrup formulations” (SCHERING CORPORATION, priority 2001, published 2003).

Assay: Storage stability testing of the syrup at ICH conditions, HPLC assay of ribavirin and degradation products
Assay type: physicochemical
Source text: The stability of a syrup formulation of the present invention was compared to conventional liquid formulations that contain ribavirin that are marketed by ICN. Degradation of syrup formulations containing ribavirin is observed during storage stability testing, as is evidenced by declining concentrations of the active ingredient and a concomitant formation of degradates. The most frequent degradation product that has been identified is the carboxylic acid product of ribavirin. Based upon these tests, it is believed that the syrup formulations of the present invention have a shelf life of greater than two years.
This analysis was performed via HPLC methods that are known to one of skill in the art. Stability data was also performed on the formulation of the present invention at 18 months after formulation, and measured by HPLC techniques as known by one of skill in the art as set forth in Table 2 below.
Only results that exceed the limit of quantitation (LOQ) were included in the attached tables. The LOQ of each degradation product is 0.05%. Synthesis-related impurities of ribavirin, the α-anomer and 5′-acetylribavirin, were not degradation products and are not monitored in the drug product. Each degradation product result was rounded to one significant figure according to the rounding convention described in the USP. The results for total degradation products that were derived from the sum of individual degradation products that contain one more significant figure than those shown in the data tables and then rounded to one decimal place.

- ribavirin degradation after storage (25° C./60% RH, up to 12 months): did not degrade significantly
- ribavirin degradation after storage (30° C./60% RH, up to 12 months): did not degrade significantly
- ribavirin degradation after storage (ICH accelerated condition 40° C./75% RH, up to 6 months): did not degrade significantly
Compound: NC(=O)c1ncn([C@@H]2O[C@H](CO)[C@@H](O)[C@H]2O)n1 [Ribavirin, 1β-D ribofuranosyl-1H-1,2,4 triazole 3-carboxamide]
